From patent publication US10188634B2, “3-(3H-imidazo[4,5-C]pyridin-2-yl)-1 H-pyrazolo[4,3-B]pyridines and therapeutic uses thereof” (Samumed, LLC, priority 2015, dated 2019)

Legend:
Type in all cases: cell-based
[1] = test system: SW480 colon cancer cells; assay: Cell viability assay (CellTiter-Blue) in SW480 colon cancer cells; conditions: Homo sapiens, 96 h, four days incubation, CellTiter-Blue cell viability
Experimental: Representative compounds were screened using the following assay procedure to assess the effect on cell viability as described below.
Each compound was dissolved in DMSO as a 10 mM stock and used to prepare compound source plates. Serial dilution (1:3, 8-point dose-response curves from 10 μM to 0.004 μM) and compound transfer was performed using the ECHO 550 (Labcyte, Sunnyvale, Calif.) into 96-well clear bottom, black-walled plates (Corning-Costar).
Approximately 2×10^3 SW480 colon cancer cells were seeded into each well and allowed to incubate in the presence or absence of compound for four days at 37° C./5% CO2. Eight replicates of DMSO-treated cells served as controls and cells treated with compound were performed in duplicate.
After incubation, 20 μL of CellTiter-Blue (Promega) was added to each well allowed to incubate for approximately 3 hours. This reagent was a buffered solution which contains resazurin, metabolically active cells were able to reduce rezarurin (blue) into resorufin (pink) which was highly fluorescent. This measured fluorescence was used as a readout for cell viability.
After incubation, the plates were read at Ex 560 nm Em 590 nm (Cytation 3, BioTek). Dose-response curves were generated and EC50 concentration values were calculated using non-linear regression curve fit in the GraphPad Prism (San Diego, Calif.) or Dotmatics' Studies Software (Bishops Stortford, UK). For EC50 of >10 μM, the percent inhibition at 10 μM is provided.

[2] = test system: Wnt activity (Sp5-Luc reporter, human Sp5 promoter with eight TCF/LEF binding sites) in SW480 colon carcinoma cells; assay: Screening assay for Wnt activity: Sp5-Luc reporter gene assay in SW480 cells; conditions: 10-point dose-response starting from 10 μM, overnight incubation
Text: The screening assay for Wnt activity is described as follows. Reporter cell lines can be generated by stably transducing cancer cell lines (e.g., colon cancer) or primary cells (e.g., IEC-6 intestinal cells) with a lentiviral construct that includes a Wnt-responsive promoter driving expression of the firefly luciferase gene.
SW480 colon carcinoma cells were transduced with a lentiviral vector expressing luciferase with a human Sp5 promoter consisting of a sequence of eight TCF/LEF binding sites. SW480 cells stably expressing the Sp5-Luc reporter gene and a hygromycin resistance gene were selected by treatment with 150 μg/mL of hygromycin for 7 days. These stably transduced SW480 cells were expanded in cell culture and used for all further screening activities. Each compound was dissolved in DMSO as a 10 mM stock and used to prepare compound source plates. Serial dilution (1:3, 10-point dose-response curves starting from 10 μM) and compound transfer was performed using the ECHO 550 (Labcyte, Sunnyvale, Calif.) into 384-well white solid bottom assay plates (Greiner Bio-One) with appropriate DMSO backfill for a final DMSO concentration of 0.1%. For Sp5-Luc reporter gene assays, the cells were plated at 4,000 cells/well in 384-well plates with medium containing 1% fetal bovine serum and incubated overnight at 37° C. and 5% CO2. Following incubation, 20 μl of BrightGlo luminescence reagent (Promega) was added to each well of the 384-well assay plates. The plates were placed on an orbital shaker for 2 min and then luminescence was quantified using the Envision (Perkin Elmer) plate reader. Readings were normalized to DMSO only treated cells, and normalized activities were utilized for EC50 calculations using the dose-response log (inhibitor) vs. response -variable slope (four parameters) nonlinear regression feature available in GraphPad Prism 5.0 (or Dotmatics). For EC50 of >10 μM, the percent inhibition at 10 μM is provided.

[3] = test system: LL29 cells (primary human fibroblasts derived from IPF patients) treated with TGF-β1, α-smooth muscle actin; assay: Inhibition of the fibrotic process: αSMA staining in TGF-β1 treated primary human fibroblasts from IPF patients (LL29 cells); conditions: Fibroblast, 96 h, LL29 cells treated with TGF-β1 (20 ng/mL), 4 days
Text: Representative compounds were screened using primary human fibroblasts (derived from IPF patients) treated with TGF-β1 to determine their ability to inhibit the fibrotic process.
Human Fibroblast Cell Culture: Primary human fibroblasts derived from IPF patients (LL29 cells) [^1Xiaoqiu Liu, et.al., “Fibrotic Lung Fibroblasts Show Blunted Inhibition by cAMP Due to Deficient cAMP Response Element-Binding Protein Phosphorylation”, Journal of Pharmacology and Experimental Therapeutics (2005), 315(2), 678-687; ^2Watts, K. L., et.al., “RhoA signaling modulates cyclin D1 expression in human lung fibroblasts; implications for idiopathic pulmonary fibrosis”, Respiratory Research (2006), 7(1), 88] were obtained from American Type Culture Collection (ATCC) and expanded in F12 medium supplemented with 15% Fetal Bovine Serum and Penicillin/Streptomycin.
Compound Screening: Each compound was dissolved in DMSO as a 10 mM stock and used to prepare compound source plates. […] LL29 cells are plated at 1,500 cells/well in 80 μL/well F12 medium supplemented with 1% Fetal Bovine Serum. One hour after addition of the cells, TGF-β1 (Peprotech; 20 ng/mL) was added to the plates to induce fibrosis (ref. 1 and 2 above). Wells treated with TGF-β1 and containing DMSO were used as controls. Cells were incubated at 37° C. and 5% CO2 for 4 days. Following incubation for 4 days, SYTOX green nucleic acid stain (Life Technologies [Thermo Fisher Scientific]) was added to the wells at a final concentration of 1 μM and incubated at room temperature for 30 min. Cells were then fixed using 4% formaldehyde (Electron Microscopy Sciences), washed 3 times with PBS followed by blocking and permeabilization using 3% Bovine Serum Albumin (BSA; Sigma) and 0.3% Triton X-100 (Sigma) in PBS. Cells were then stained with antibody specific to α-smooth muscle actin (αSMA; Abcam) (ref. 1 and 2 above) in 3% Bovine Serum Albumin (BSA; Sigma) and 0.3% Triton X-100 (Sigma) in PBS, and incubated overnight at 4° C. Cells were then washed 3 times with PBS, followed by incubation with Alexa Flor-647 conjugated secondary antibody (Life Technologies [Thermo Fisher Scientific]) and DAPI at room temperature for 1 hour. Cells were then washed 3 times with PBS and plates were sealed for imaging. αSMA staining was imaged by excitation at 630 nm and emission at 665 nm and quantified using the Compartmental Analysis program on the CellInsight CX5 (Thermo Scientific). Dead or apoptotic cells were excluded from analysis based on positive SYTOX green staining. % of total cells positive for αSMA were counted in each well and normalized to the average of 11 wells treated with TGF-β1 on the same plate using Dotmatics' Studies Software. The normalized averages (fold change over untreated) of 3 replicate wells for each compound concentration were used to create dose-responses curves and EC50 values were calculated using non-linear regression curve fit in the Dotmatics' Studies Software. For EC50 of >10 μM, the percent inhibition at 10 μM is provided.

[4] = test system: IL-6 in THP-1 cells; assay: Inhibition of IL-6 in LPS-stimulated THP-1 human monocyte cells (HTRF); conditions: IL-6 HTRF; for EC50: 500 ng/mL LPS, 22 hours; for inhibition at 10 µM: LPS, read-out: percent inhibition in brackets (given for EC50 >10 μM)
Experimental: Human Monocyte Cell Culture: Human monocyte cell line (THP-1 cells; Catalog # TIB-202, ATCC, Manassas, Va.) were cultured in Roswell Park Memorial Institute (RPMI) 1640 Medium (Catalog #21870-100, Buffalo, N.Y.) with 1% L-glutamine, 1% HEPES, 1% Sodium Pyruvate, 2% Sodium Bicarbonate supplemented with 100 units/mL penicillin, 50 μg/mL streptomycin, 2-mercaptoethanol (0.05 mM) [basal medium] and 10% fetal bovine serum (Catalog #16140089, Life Technologies, Carlsbad, Calif.) at 37° C. and 5% CO2.
Compound Screening: THP-1 cells were cultured in basal media with 1% FBS for 24 hours before the start of the assay. Each compound was dissolved in DMSO as a 10 mM stock and used to prepare compound source plates. Serial dilution (1:3, 10-point dose-response curves starting from 10 μM) and compound transfer was performed using the ECHO 550 (Labcyte, Sunnyvale, Calif.) into 384-well white low volume assay plates (Greiner Bio-One) with appropriate DMSO backfill for a final DMSO concentration of 0.1%. THP-1 cells were plated at 5000 cells/well in the 384-well plates and incubated at 37° C. for 2 h. 500 ng/mL of LPS was added after 2 hours and cells were incubated for another 22 hours at 37° C. Plates were spun in a centrifuge for 1 minute at […] and a mixture of anti-IL6 XL665, and anti-IL6 Cryptate diluted in reconstitution buffer (Cisbio Inc.) was added to each well. Following incubation for 3 hrs at room temperature, Homogeneous Time-Resolved Fluorescence (HTRF) was measured using the Envision (Perkin Elmer) at 665 nm and […]. The ratio of fluorescence at 665 nm to 620 nm was used as a readout for IL6 quantification. All samples were processed in duplicate. Readings were normalized to DMSO treated cells and normalized activities were utilized for EC50 calculations using the dose-response log (inhibitor) vs. response -variable slope (four parameters) nonlinear regression feature available in GraphPad Prism 5.0 (or Dotmatics). For EC50 of >10 μM, the percent inhibition at 10 μM is provided.

SMILES | EC50 [1] [nM] | EC50 [2] [nM] | EC50 [4] [nM] | EC50 [3] [nM] | inhibition at 10 µM [4] [%]
Fc1ccccc1-c1cncc2[nH]c(-c3n[nH]c4ccc(-c5cncc(CNCC6CCCC6)c5)nc34)nc12 [Compound 81, 1-Cyclopentyl-N-((5-(3-(7-(2-fluorophenyl)-3H-imidazo[4,5-c]pyridin-2-yl)-1H-pyrazolo[4,3-b]pyridin-5-yl)pyridin-3-yl)methyl)methanamine] | 1390 | 1260 | 3530 | 1940 | 
c1ccc(CNCc2cncc(-c3ccc4[nH]nc(-c5nc6c(-c7ccsc7)cncc6[nH]5)c4n3)c2)cc1 [Compound 276, N-Benzyl-1-(5-(3-(7-(thiophen-3-yl)-3H-imidazo[4,5-c]pyridin-2-yl)-1H-pyrazolo[4,3-b]pyridin-5-yl)pyridin-3-yl)methanamine] | 1180 | 3460 | > 10000 | 7470 | 39.9
CN(C)CCNc1cc(F)cc(-c2cncc3[nH]c(-c4n[nH]c5ccc(-c6cncc(CNCC7CCCC7)c6)nc45)nc23)c1 [Compound 445, N^1-(3-(2-(5-(5-(((Cyclopentylmethyl)amino)methyl)pyridin-3-yl)-1H-pyrazolo[4,3-b]pyridin-3-yl)-3H-imidazo[4,5-c]pyridin-7-yl)-5-fluorophenyl)-N^2,N^2-dimethylethane-1,2-diamine] | 8710 | 9280 | > 10000 | 4020 | 45.8
CN(C)CCNc1cc(F)cc(-c2cncc3[nH]c(-c4n[nH]c5ccc(-c6ccccn6)nc45)nc23)c1 [Compound 448, N^1-(3-Fluoro-5-(2-(5-(pyridin-2-yl)-1H-pyrazolo[4,3-b]pyridin-3-yl)-3H-imidazo[4,5-c]pyridin-7-yl)phenyl)-N^2,N^2-dimethylethane-1,2-diamine] | 2140 | 1710 | 1680 | 941 | 
Fc1cccc(-c2cncc3[nH]c(-c4n[nH]c5ccc(-c6cncc(OCCN7CCCC7)c6)nc45)nc23)c1 [Compound 486, 3-(7-(3-Fluorophenyl)-3H-imidazo[4,5-c]pyridin-2-yl)-5-(5-(2-(pyrrolidin-1-yl)ethoxy)pyridin-3-yl)-1H-pyrazolo[4,3-b]pyridine] | 9340 | 3430 | > 10000 | 2120 | 47.4

Further lines, with some results ahead:

EC50 [1] [nM] | EC50 [2] [nM] | EC50 [4] [nM] | SMILES | EC50 [3] [nM] | inhibition at 10 µM [4] [%]
4420 | 9700 | 1400 | O=C(Nc1cncc(-c2ccc3[nH]nc(-c4nc5c(N6CCCCC6)cncc5[nH]4)c3n2)c1)C1CC1 [Compound 188, N-(5-(3-(7-(Piperidin-1-yl)-3H-imidazo[4,5-c]pyridin-2-yl)-1H-pyrazolo[4,3-b]pyridin-5-yl)pyridin-3-yl)cyclopropanecarboxamide] | 4940 | 
3590 | 2330 | 6550 | FC1(F)CCN(Cc2cncc(-c3ccc4[nH]nc(-c5nc6c(N7CCCCC7)cncc6[nH]5)c4n3)c2)C1 [Compound 194, 5-(5-((3,3-Difluoropyrrolidin-1-yl)methyl)pyridin-3-yl)-3-(7-(piperidin-1-yl)-3H-imidazo[4,5-c]pyridin-2-yl)-1H-pyrazolo[4,3-b]pyridine] | 2710 | 
2180 | 3390 | 44 | COc1cncc(-c2ccc3[nH]nc(-c4nc5c(N6CCCCC6)cncc5[nH]4)c3n2)c1 [Compound 584, 5-(5-Methoxylpyridin-3-yl)-3-(7-(piperidin-1-yl)-3H-imidazo[4,5-c]pyridin-2-yl)-1H-pyrazolo[4,3-b]pyridine] | 1650 | 
2540 | 1920 | 8780 | CN1CCN(c2cncc3[nH]c(-c4n[nH]c5ccc(-c6cncc(OC7CCCCC7)c6)nc45)nc23)CC1 [Compound 611, 5-(5-(Cyclohexyloxy)pyridin-3-yl)-3-(7-(4-methylpiperazin-1-yl)-3H-imidazo[4,5-c]pyridin-2-yl)-1H-pyrazolo[4,3-b]pyridine] | 1330 | 
